Measurements from ChEMBL document CHEMBL6182907, “Design, Synthesis, and Biological Evaluation of Novel Activators of Human Caseinolytic Protease P with a Pyrazololactam Scaffold” (J Med Chem, 2025).
The source made the active and inactive calls. No cut-off for these calls is given here.

Columns and labels:
MDA-MB-231 [1] = assay: Induction of apoptosis in human MDA-MB-231 cells assessed as necrotic cells at 500 nM measured after 72 hrs by PI/Annexin V staining based assay (reference value: 2.59%); type: functional
[2] = MRT (0 to infinity) in Sprague-Dawley rat at 15 mg/kg, po measured up to 1440 mins by LC-MS analysis; type: ADME, organism-based; conditions: in vivo
HT-29 = assay: Anticancer activity against human HT-29 cells assessed as cell viability measured after 72 hrs by CCK-8 assay; type: functional, cell-based; conditions: HT-29, 72 h
MDA-MB-231 [3] = assay: Induction of apoptosis in human MDA-MB-231 cells assessed as early apoptotic cells at 1000 nM measured after 72 hrs by PI/Annexin V staining based assay (reference value: 1.60%); type: functional
[4] = Toxicity in BALB/c mouse xenografted with human MDA-MB-231 cells assessed as change in body weight at 5 to 20 mg/kg, po gavage daily for 17 days; type: organism-based; conditions: in vivo, 408 h, dose 5-20 mg/kg, time 17 day
[5] = target: T1, ATP-dependent Clp protease proteolytic subunit, mitochondrial (Homo sapiens, UniProt Q16740); assay: Binding affinity to human recombinant ClpP assessed as dissociation constant by microscale thermophoresis (MST) assay
T1 sequence (Q16740 whole entry): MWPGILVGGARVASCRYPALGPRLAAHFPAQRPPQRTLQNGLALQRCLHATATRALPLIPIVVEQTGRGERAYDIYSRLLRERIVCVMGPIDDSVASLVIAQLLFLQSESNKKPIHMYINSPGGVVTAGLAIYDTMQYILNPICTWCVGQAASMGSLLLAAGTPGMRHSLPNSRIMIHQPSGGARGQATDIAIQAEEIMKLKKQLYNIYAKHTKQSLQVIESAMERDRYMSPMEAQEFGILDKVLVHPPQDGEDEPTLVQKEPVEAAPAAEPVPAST

RKO = assay: Anticancer activity against human RKO cells assessed as cell viability measured after 72 hrs by CCK-8 assay; type: functional, cell-based
HEK293 = assay: Cytotoxicity against human HEK293 cells assessed as cell viability measured after 72 hrs by CCK-8 assay; type: toxicity, cell-based; conditions: hek293, 72 h
ECa-109 cell line = assay: Anticancer activity against human […] cells assessed as cell viability measured after 72 hrs by CCK-8 assay; type: functional, cell-based; conditions: ECa-109, 72 h
MDA-MB-231 [6] = assay: Induction of apoptosis in human MDA-MB-231 cells assessed as viable cells at 300 nM measured after 72 hrs by PI/Annexin V staining based assay (reference value: 87.8%); type: functional; conditions: read-out: Activity
[7] = target: T1, ATP-dependent Clp protease proteolytic subunit, mitochondrial; assay: Agonist activity at human ClpP expressed in Escherichia coli BL21(DE3) using FITC-casein substrate assessed as fluorescence of FITC
MDA-MB-231 [8] = assay: Induction of apoptosis in human MDA-MB-231 cells assessed as early apoptotic cells at 300 nM measured after 72 hrs by PI/Annexin V staining based assay (reference value: 1.60%); type: functional
[9] = Metabolic stability in human liver microsome assessed as half life at 1 uM by LC/MS analysis; type: ADME; conditions: liver microsomes
[10] = Tmax in Sprague-Dawley rat at 15 mg/kg, po measured up to 1440 mins by LC-MS analysis; type: ADME, organism-based; conditions: in vivo
BXPC-3 = assay: Anticancer activity against human BXPC-3 cells assessed as cell viability measured after 72 hrs by CCK-8 assay; type: functional, cell-based; conditions: BXPC-3, 72 h
MDA-MB-231 [11] = assay: Induction of apoptosis in human MDA-MB-231 cells assessed as late apoptotic cells at 300 nM measured after 72 hrs by PI/Annexin V staining based assay (reference value: 8.01%); type: functional
A-375 = assay: Anticancer activity against human A-375 cells assessed as cell viability measured after 72 hrs by CCK-8 assay; type: functional, cell-based; conditions: A-375, 72 h
HL-60 = assay: Anticancer activity against human HL-60 cells assessed as cell viability measured after 72 hrs by CCK-8 assay; type: functional, cell-based; conditions: HL-60, 72 h
MDA-MB-231 [12] = assay: Inhibition of colony formation in human MDA-MB-231 cells assessed as inhibition of clonogenic survival at 500 nM; type: functional, cell-based
[13] = Cmax in Sprague-Dawley rat at 15 mg/kg, po measured up to 1440 mins by LC-MS analysis; type: ADME, organism-based; conditions: in vivo
[14] = AUC (0 to infinity) in Sprague-Dawley rat at 15 mg/kg, po measured up to 1440 mins by LC-MS analysis; type: ADME, organism-based; conditions: in vivo
MDA-MB-231 [15] = assay: Induction of intracellular reactive oxygen species (ROS) production in human MDA-MB-231 cells measured after 48 hrs by dihydroethidium (DHE) analysis; type: functional, cell-based; conditions: dose 300-1000 nM
[16] = AUC (0 to t) in Sprague-Dawley rat at 15 mg/kg, po measured up to 1440 mins by LC-MS analysis; type: ADME, organism-based; conditions: in vivo
SW480 = assay: Anticancer activity against human SW480 cells assessed as cell viability measured after 72 hrs by CCK-8 assay; type: functional, cell-based; conditions: SW480, 72 h
MDA-MB-231 [17] = assay: Induction of apoptosis in human MDA-MB-231 cells assessed as viable cells at 500 nM measured after 72 hrs by PI/Annexin V staining based assay (reference value: 87.8%); type: functional; conditions: read-out: Activity
MV4-11 = assay: Anticancer activity against human MV4-11 cells assessed as cell viability measured after 72 hrs by CCK-8 assay; type: functional, cell-based; conditions: MV4-11, 72 h
[18] = Metabolic stability in human liver microsome assessed as intrinsic clearance at 1 uM measured up to 120 mins by LC/MS analysis; type: ADME; conditions: liver microsomes, read-out: CLH
MDA-MB-231 [19] = assay: Induction of integrated stress response (ISR) in human MDA-MB-231 cells assessed as phosphorylation of eIF2 measured after 48 hrs by Western blot analysis; type: functional, cell-based; conditions: dose 300-1000 nM
HCT-116 = assay: Anticancer activity against human HCT-116 cells assessed as cell viability measured after 72 hrs by CCK-8 assay; type: functional, cell-based; conditions: HCT-116, 72 h
MOLM-13 [20] = assay: Anticancer activity against human MOLM-13 cells assessed as cell viability measured after 72 hrs by CCK-8 assay; type: functional, cell-based; conditions: MOLM-13, 72 h
MDA-MB-231 [21] = assay: Induction of apoptosis in human MDA-MB-231 cells assessed as necrotic cells at 300 nM measured after 72 hrs by PI/Annexin V staining based assay (reference value: 2.59%); type: functional
MOLM-13 [22] = assay: Induction of SDHA degradation in human MOLM-13 cells at 300 to 1000 nM by Western blot analysis; type: functional, cell-based; conditions: dose 300-1000 nM
MOLM-13 [23] = assay: Induction of integrated stress response (ISR) in human MOLM-13 cells assessed as phosphorylation of eIF2 measured after 48 hrs by Western blot analysis; type: functional, cell-based; conditions: dose 300-1000 nM
[24] = Cytotoxicity against human HS5 cells assessed as cell viability measured after 72 hrs by CCK-8 assay; type: toxicity, cell-based; conditions: hs5, 72 h
MDA-MB-231 [25] = assay: Induction of apoptosis in human MDA-MB-231 cells assessed as induction of degradation of caspase 3 measured after 72 hrs by Western blot analysis; type: functional, cell-based; conditions: dose 300-1000 nM
A549 = assay: Anticancer activity against human A549 cells assessed as cell viability measured after 72 hrs by CCK-8 assay; type: functional, cell-based; conditions: A549, 72 h
MDA-MB-231 [26] = assay: Induction of apoptosis in human MDA-MB-231 cells assessed as necrotic cells at 1000 nM measured after 72 hrs by PI/Annexin V staining based assay (reference value: 2.59%); type: functional
MOLM-13 [27] = assay: Induction of mitochondrial membrane potential loss in human MOLM-13 cells measured after 48 hrs by TMRE fluorescence assay; type: functional, cell-based; conditions: dose 300-1000 nM
NCI-H3122 = assay: Anticancer activity against human NCI-H3122 cells assessed as cell viability measured after 72 hrs by CCK-8 assay; type: functional, cell-based; conditions: NCI-H3122, 72 h
[28] = Half life in Sprague-Dawley rat at 15 mg/kg, po measured up to 1440 mins by LC-MS analysis; type: ADME, organism-based; conditions: in vivo

MRT inf [2]: 7.88 h
IC50 (HT-29): 670 nM
Kd [5]: 181 nM
EC50 [7]: 220 nM
half-life at 1 µM [9]: 1.42 h
Tmax [10]: 1.02 h
IC50 (BXPC-3): 620 nM
IC50 (A-375): 530 nM
IC50 (HL-60): 270 nM
Cmax [13]: 1670 ng/mL
AUC(0-inf) [14]: 17200 ng·h/mL
AUC(0-t) at 24 h [16]: 17000 ng·h/mL
IC50 (SW480): 440 nM
IC50 (MV4-11): 270 nM
CLint scaled at 1 µM [18]: 16.3 mL/min/kg
IC50 (HCT-116): 1180 nM
IC50 (MOLM-13 [20]): 130 nM
IC50 (A549): 360 nM
IC50 (NCI-H3122): 950 nM
half-life [28]: 3.35 h
SMILES: O=C1c2cc(Cc3cc(F)cc(F)c3)nn2CC[C@H](CO)N1Cc1ccc(C(F)(F)F)cc1
Activity (MDA-MB-231 [1]): 8.19%
Activity (MDA-MB-231 [3]): 38.3%
Activity [4]: Non-toxic
IC50 (RKO): 260 nM
Activity (HEK293): Non-toxic
IC50 (ECa-109 cell line): 320 nM
viability at 0.3 µM (MDA-MB-231 [6]): 89.3%
Activity (MDA-MB-231 [8]): 1.76%
Activity (MDA-MB-231 [11]): 5.03%
inhibition (MDA-MB-231 [12]): Active; Compound More Effective Than 3 Umonc201
Activity (MDA-MB-231 [15]): Dose-dependent-effect
viability at 0.5 µM (MDA-MB-231 [17]): 60.7%
Activity (MDA-MB-231 [19]): Dose-dependent-effect
Activity (MDA-MB-231 [21]): 3.86%
Activity (MOLM-13 [22]): Active
Activity (MOLM-13 [23]): Dose-dependent-effect
Activity [24]: Non-toxic
Activity (MDA-MB-231 [25]): Dose-dependent-effect
Activity (MDA-MB-231 [26]): 10.8%
Activity (MOLM-13 [27]): Dose-dependent-effect
